Experimental data reported in ChEMBL document CHEMBL3044741, “Synthesis of novel biologically active methylene derivatives of sydnones” (Med Chem Res, 2013).
Values after ≈ are worked out from the molar mass of the structure shown.

Assays:
[1] = test system: Human immunodeficiency virus 2; assay: Antiviral activity against HIV2 ROD infected in MT4 cells assessed as inhibition of virus-induced cytopathogenicity by MTT assay; format: functional, organism-based; settings: Human immunodeficiency virus 2, ISOLATE ROD
Streptococcus pyogenes [2] = assay: Antibacterial activity against Streptococcus pyogenes MTCC 442 after 24 hrs by broth dilution method; format: functional; settings: MTCC 442, 24 h
Escherichia coli [3] = assay: Antibacterial activity against Escherichia coli MTCC 443 after 24 hrs by broth dilution method; format: functional; settings: MTCC 443, 24 h
Cytomegalovirus [4] = assay: Antiviral activity against Cytomegalovirus Davis in HEL cells assessed as reduction in plaque formation; format: functional, organism-based; settings: Human betaherpesvirus 5, Davis
Cytomegalovirus [5] = assay: Antiviral activity against Cytomegalovirus AD-169 infected in HEL cells assessed as reduction in plaque formation; format: functional, organism-based; settings: Human betaherpesvirus 5, AD-169, HEL
Aspergillus niger [6] = assay: Antifungal activity against Aspergillus niger MTCC 282; format: functional
Aspergillus clavatus [7] = assay: Antifungal activity against Aspergillus clavatus MTCC 1323 at 250 ug/ml after 74 hrs by Kirby-Bauer method; format: functional; settings: for zone of inhibition at 250 µg/mL: MTCC 1323, 74 h, read-out: IZ
Candida albicans [8] = assay: Antifungal activity against Candida albicans MTCC 227 at 250 ug/ml after 74 hrs by Kirby-Bauer method; format: functional; settings: MTCC 227, 74 h, read-out: IZ
[9] = Selectivity index, ratio of CC50 for human MT4 cells to IC50 for HIV2 ROD; format: functional
[10] = Cytotoxicity against human HEL cells assessed as alteration in cell morphology; format: cell-based
Streptococcus pyogenes [11] = assay: Antibacterial activity against Streptococcus pyogenes MTCC 442 at 250 ug/ml after 24 hrs by Kirby-Bauer method; format: functional; settings: MTCC 442, 24 h, read-out: IZ
Pseudomonas aeruginosa [12] = assay: Antibacterial activity against Pseudomonas aeruginosa MTCC 424 after 24 hrs by broth dilution method; format: functional; settings: MTCC 424, 24 h
Human alphaherpesvirus 3 [13] = assay: Antiviral activity against Varicella-zoster virus Oka expressing thymidine kinase infected in HEL cells assessed as reduction in plaque formation; format: functional, organism-based; settings: Human alphaherpesvirus 3, strain Oka vaccine
Aspergillus niger [14] = assay: Antifungal activity against Aspergillus niger MTCC 282 at 250 ug/ml after 74 hrs by Kirby-Bauer method; format: functional; settings: MTCC 282, 74 h, read-out: IZ
Escherichia coli [15] = assay: Antibacterial activity against Escherichia coli MTCC 443 at 250 ug/ml after 24 hrs by Kirby-Bauer method; format: functional; settings: MTCC 443, 24 h, read-out: IZ
[16] = Cytotoxicity against human MT4 cells by MTT assay; format: cell-based
[17] = test system: Human immunodeficiency virus 1; assay: Antiviral activity against HIV1 3B infected in MT4 cells assessed as inhibition of virus-induced cytopathogenicity by MTT assay; format: functional, organism-based; settings: Human immunodeficiency virus 1, 3B
[18] = Selectivity index, ratio of CC50 for human MT4 cells to IC50 for HIV1 3B; format: functional
Staphylococcus aureus [19] = assay: Antibacterial activity against Staphylococcus aureus MTCC 96 after 24 hrs by broth dilution method; format: functional; settings: MTCC 96, 24 h
Human alphaherpesvirus 3 [20] = assay: Antiviral activity against thymidine kinase-deficient Varicella-zoster virus infected in HEL cells assessed as reduction in plaque formation; format: functional, organism-based; settings: Human alphaherpesvirus 3, HEL
Candida albicans [21] = assay: Antifungal activity against Candida albicans MTCC 227; format: functional
Aspergillus clavatus [22] = assay: Antifungal activity against Aspergillus clavatus MTCC 1323; format: functional
Pseudomonas aeruginosa [23] = assay: Antibacterial activity against Pseudomonas aeruginosa MTCC 424 at 250 ug/ml after 24 hrs by Kirby-Bauer method; format: functional; settings: MTCC 424, 24 h, read-out: IZ
Staphylococcus aureus [24] = assay: Antibacterial activity against Staphylococcus aureus MTCC 96 at 250 ug/ml after 24 hrs by Kirby-Bauer method; format: functional; settings: MTCC 96, 24 h, read-out: IZ
[25] = Cytotoxicity against human HEL cells; format: cell-based

| Compound | IC50 [1] | MIC (Streptococcus pyogenes [2]) | MIC (Escherichia coli [3]) | MIC (Aspergillus niger [6]) | Ratio CC50/IC50 [9] | zone of inhibition at 250 µg/mL (Streptococcus pyogenes [11]) | MIC (Pseudomonas aeruginosa [12]) | zone of inhibition at 250 µg/mL (Escherichia coli [15]) | CC50 [16] | IC50 [17] | Ratio CC50/IC50 [18] | MIC (Staphylococcus aureus [19]) | MIC (Candida albicans [21]) | MIC (Aspergillus clavatus [22]) | zone of inhibition at 250 µg/mL (Pseudomonas aeruginosa [23]) | zone of inhibition at 250 µg/mL (Staphylococcus aureus [24]) | also measured |
| --- | --- | --- | --- | --- | --- | --- | --- | --- | --- | --- | --- | --- | --- | --- | --- | --- | --- |
| Cc1ccc(-[n+]2noc([O-])c2CN2CCN(c3ccccc3)CC2)cc1 | > 13.2 µg/mL | 250 µg/mL (≈ 713 µM) | 500 µg/mL (≈ 1430 µM) | 200 µg/mL (≈ 571 µM) | <1 | 18 mm | 100 µg/mL (≈ 285 µM) | 16 mm | 13.2 µg/mL (≈ 37.8 µM) | > 13.2 µg/mL | <1 | 250 µg/mL (≈ 713 µM) | 500 µg/mL (≈ 1430 µM) | 500 µg/mL (≈ 1430 µM) | 20 mm | 18 mm | EC50 (Cytomegalovirus [4]): > 20 µg/mL; EC50 (Cytomegalovirus [5]): > 20 µg/mL; zone of inhibition at 250 µg/mL (Aspergillus clavatus [7]): 21 mm; zone of inhibition at 250 µg/mL (Candida albicans [8]): 21 mm; MCC [10]: 100 µg/mL; EC50 (Human alphaherpesvirus 3 [13]): > 4 µg/mL; zone of inhibition at 250 µg/mL (Aspergillus niger [14]): 24 mm; EC50 (Human alphaherpesvirus 3 [20]): > 4 µg/mL; CC50 [25]: 20 µg/mL (≈ 57.1 µM) |
| CC(=O)N1CCN(Cc2c([O-])on[n+]2-c2ccc(C)cc2)CC1 | > 17.3 µg/mL | 100 µg/mL (≈ 316 µM) | 250 µg/mL (≈ 790 µM) | 200 µg/mL (≈ 632 µM) | <1 | 21 mm | 500 µg/mL (≈ 1580 µM) | 19 mm | 17.3 µg/mL (≈ 54.6 µM) | > 17.3 µg/mL | <1 | 500 µg/mL (≈ 1580 µM) | 200 µg/mL (≈ 632 µM) | 200 µg/mL (≈ 632 µM) | 17 mm | 17 mm | EC50 (Cytomegalovirus [4]): > 20 µg/mL; EC50 (Cytomegalovirus [5]): > 20 µg/mL; zone of inhibition at 250 µg/mL (Aspergillus clavatus [7]): 24 mm; zone of inhibition at 250 µg/mL (Candida albicans [8]): 22 mm; MCC [10]: 100 µg/mL; EC50 (Human alphaherpesvirus 3 [13]): > 20 µg/mL; zone of inhibition at 250 µg/mL (Aspergillus niger [14]): 26 mm; EC50 (Human alphaherpesvirus 3 [20]): > 20 µg/mL; CC50 [25]: 24.9 µg/mL (≈ 78.7 µM) |
| O=C(O)c1cn(C2CC2)c2cc(N3CCNCC3)c(F)cc2c1=O [CIPROFLOXACIN] | – | 50 µg/mL (≈ 151 µM) | 25 µg/mL (≈ 75.4 µM) | – | – | 22 mm | – | 28 mm | – | – | – | 50 µg/mL (≈ 151 µM) | – | – | 27 mm | 22 mm | – |
| [O-]c1c[n+](-c2ccc(Cc3ccc(-[n+]4cc([O-])on4)cc3)cc2)no1 | – | – | – | – | – | – | – | – | – | – | – | – | – | – | – | – | EC50 (Cytomegalovirus [4]): > 20 µg/mL; EC50 (Cytomegalovirus [5]): > 4 µg/mL; MCC [10]: ≥ 20 µg/mL; EC50 (Human alphaherpesvirus 3 [13]): > 4 µg/mL; EC50 (Human alphaherpesvirus 3 [20]): > 4 µg/mL; CC50 [25]: 33.3 µg/mL (≈ 99 µM) |
| COC1=CC(=O)C[C@@H](C)[C@]12Oc1c(Cl)c(OC)cc(OC)c1C2=O [GRISEOFULVIN] | – | – | – | 100 µg/mL (≈ 283 µM) | – | – | – | – | – | – | – | – | 100 µg/mL (≈ 283 µM) | 100 µg/mL (≈ 283 µM) | – | – | zone of inhibition at 250 µg/mL (Aspergillus clavatus [7]): 24 mm; zone of inhibition at 250 µg/mL (Candida albicans [8]): 24 mm; zone of inhibition at 250 µg/mL (Aspergillus niger [14]): 28 mm |
| O=C(N[C@H](CO)[C@H](O)c1ccc([N+](=O)[O-])cc1)C(Cl)Cl [CHLORAMPHENICOL] | – | 50 µg/mL (≈ 155 µM) | 50 µg/mL (≈ 155 µM) | – | – | 20 mm | 50 µg/mL (≈ 155 µM) | 23 mm | – | – | – | 50 µg/mL (≈ 155 µM) | – | – | 21 mm | 21 mm | – |
| Cc1ccnc2c1NC(=O)c1cccnc1N2C1CC1 [NEVIRAPINE] | > 4 µg/mL | – | – | – | <1 | – | – | – | > 4 µg/mL | 0.05 µg/mL (≈ 0.188 µM) | >80 | – | – | – | – | – | – |
| CCn1cc(C(=O)O)c(=O)c2cc(F)c(N3CCNCC3)cc21 [NORFLOXACIN] | – | 10 µg/mL (≈ 31.3 µM) | 10 µg/mL (≈ 31.3 µM) | – | – | 21 mm | 10 µg/mL (≈ 31.3 µM) | 29 mm | – | – | – | 10 µg/mL (≈ 31.3 µM) | – | – | 23 mm | 28 mm | – |
| NYSTATIN | – | – | – | 100 µg/mL | – | – | – | – | – | – | – | – | 100 µg/mL | 100 µg/mL | – | – | inhibition zone (IZ) (Aspergillus clavatus [7]): 26 mm |
| CC1(C)S[C@@H]2[C@H](NC(=O)[C@H](N)c3ccccc3)C(=O)N2[C@H]1C(=O)O [AMPICILLIN] | – | 100 µg/mL (≈ 286 µM) | 100 µg/mL (≈ 286 µM) | – | – | 19 mm | 100 µg/mL (≈ 286 µM) | 20 mm | – | – | – | 250 µg/mL (≈ 715 µM) | – | – | 20 mm | 18 mm | – |
| O=c1[nH]cnc2c1ncn2[C@H]1CC[C@@H](CO)O1 [DIDANOSINE] | 3.78 µg/mL (≈ 16 µM) | – | – | – | >13 | – | – | – | > 50 µg/mL | 2.09 µg/mL (≈ 8.85 µM) | >24 | – | – | – | – | – | – |
| Cc1ccc(-[n+]2cc([O-])on2)cc1 | – | – | – | – | – | – | – | – | – | – | – | – | – | – | – | – | EC50 (Cytomegalovirus [4]): > 20 µg/mL; EC50 (Cytomegalovirus [5]): > 20 µg/mL; MCC [10]: 100 µg/mL; EC50 (Human alphaherpesvirus 3 [13]): > 20 µg/mL; EC50 (Human alphaherpesvirus 3 [20]): > 20 µg/mL; CC50 [25]: 33.1 µg/mL (≈ 188 µM) |
| CN1CCN(Cc2c([O-])on[n+]2-c2ccc(Cc3ccc(-[n+]4noc([O-])c4CN4CCN(C)CC4)cc3)cc2)CC1 | – | 62.5 µg/mL (≈ 111 µM) | 250 µg/mL (≈ 446 µM) | 1000 µg/mL (≈ 1780 µM) | – | 22 mm | 250 µg/mL (≈ 446 µM) | 19 mm | – | – | – | 500 µg/mL (≈ 892 µM) | 500 µg/mL (≈ 892 µM) | 500 µg/mL (≈ 892 µM) | 19 mm | 16 mm | zone of inhibition at 250 µg/mL (Aspergillus clavatus [7]): 23 mm; zone of inhibition at 250 µg/mL (Candida albicans [8]): 19 mm; zone of inhibition at 250 µg/mL (Aspergillus niger [14]): 20 mm |
| Nc1ccn([C@H]2CC[C@@H](CO)O2)c(=O)n1 [ZALCITABINE] | 0.19 µg/mL (≈ 0.9 µM) | – | – | – | >108 | – | – | – | > 20 µg/mL | 0.16 µg/mL (≈ 0.758 µM) | >127 | – | – | – | – | – | – |
| Cc1cn([C@H]2C[C@H](N=[N+]=[N-])[C@@H](CO)O2)c(=O)[nH]c1=O [ZIDOVUDINE] | 0.00094 µg/mL (≈ 0.00352 µM) | – | – | – | >26731 | – | – | – | > 25 µg/mL | 0.0022 µg/mL (≈ 0.00823 µM) | >11587 | – | – | – | – | – | – |
| Cc1ccc(-[n+]2noc([O-])c2CN2CCN(CCOCCO)CC2)cc1 | – | 500 µg/mL (≈ 1380 µM) | 500 µg/mL (≈ 1380 µM) | – | – | 16 mm | 250 µg/mL (≈ 690 µM) | 16 mm | – | – | – | 200 µg/mL (≈ 552 µM) | – | – | 21 mm | 19 mm | – |
